The values that follow come from patent US12703729B2, “GIP agonist compounds and methods” (Zealand Pharma A/S, priority 2014, dated 2026).

Starred links: 1 amine or outer side, 2 acyl side, 3 side chain; linkers in the order of their positions; H or OH if unused. Non-standard residues stand in square brackets, D forms with d. Residues, ends and D or L forms follow the SMILES beside them. Groups on a side chain read outwards from the residue. *: point of attachment. X1 = O=C(O)CCCCCCCCCCCCCCCCCCC(=O)N1CCN(CC(=O)*)CC1; C20 diacid = O=C(O)CCCCCCCCCCCCCCCCCCC(=O)*; γGlu = O=C(O)[C@H](CCC(=O)[*:2])N[*:1]; AEEA = NCCOCCOCC(=O)O; Aib = CC(C)(N)C(=O)O Where only a bound is given, the exact number is not on record here.

One assay concerns the target T1, human GIP R (Homo sapiens, UniProt P48546).
T1 sequence (P48546 22-466): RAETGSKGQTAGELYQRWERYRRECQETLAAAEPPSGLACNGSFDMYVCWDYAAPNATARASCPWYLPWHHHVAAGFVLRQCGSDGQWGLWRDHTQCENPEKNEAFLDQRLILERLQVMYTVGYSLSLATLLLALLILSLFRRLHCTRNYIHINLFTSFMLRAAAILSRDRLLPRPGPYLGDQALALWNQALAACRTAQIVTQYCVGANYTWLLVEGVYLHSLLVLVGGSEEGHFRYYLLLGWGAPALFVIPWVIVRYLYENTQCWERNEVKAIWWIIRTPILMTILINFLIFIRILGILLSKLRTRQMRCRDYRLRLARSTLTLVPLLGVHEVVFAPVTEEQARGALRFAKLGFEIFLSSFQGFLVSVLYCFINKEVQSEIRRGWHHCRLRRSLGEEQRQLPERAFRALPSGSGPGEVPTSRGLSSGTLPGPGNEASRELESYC
Kind of assay: cell-based.

The target in assay [1] is T2, human GIP receptor (GIP R) (Homo sapiens, UniProt P48546).
T2 sequence (P48546 22-466): T1 sequence (P48546 22-466)
In words: Activity assay at human GIP receptor, cAMP induction (AlphaScreen), Example 3.

Assay [2] concerns the target human GLP-1 receptor (GLP-1R) (Homo sapiens, UniProt P43220). Kind of assay: Activity assay at human GLP-1 receptor, cAMP induction (AlphaScreen), Example 3. (In general: Bead proximity is the source of the signal in Alpha formats.)

Chain of human GLP-1 receptor (GLP-1R) (P43220 24-463): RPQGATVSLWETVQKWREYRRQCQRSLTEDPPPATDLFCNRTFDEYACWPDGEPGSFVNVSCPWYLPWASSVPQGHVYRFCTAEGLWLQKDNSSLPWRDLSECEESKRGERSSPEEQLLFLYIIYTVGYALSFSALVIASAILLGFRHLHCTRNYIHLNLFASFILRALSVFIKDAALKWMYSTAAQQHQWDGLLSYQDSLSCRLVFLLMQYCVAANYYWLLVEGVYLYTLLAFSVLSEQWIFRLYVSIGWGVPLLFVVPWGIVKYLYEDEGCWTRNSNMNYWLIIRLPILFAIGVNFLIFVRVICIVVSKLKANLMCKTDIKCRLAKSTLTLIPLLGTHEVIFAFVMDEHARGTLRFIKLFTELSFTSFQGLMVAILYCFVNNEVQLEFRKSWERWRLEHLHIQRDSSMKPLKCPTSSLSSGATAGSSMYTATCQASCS

`CC[C@H](C)[C@H](NC(=O)[C@H](Cc1ccccc1)NC(=O)[C@H](CC(=O)O)NC(=O)[C@H](CCC(N)=O)NC(=O)[C@H](C)NC(=O)[C@H](C)NC(=O)[C@H](CCCCNC(=O)COCCOCCNC(=O)COCCOCCNC(=O)CC[C@H](NC(=O)CCCCCCCCCCCCCCCCCCC(=O)O)C(=O)O)NC(=O)[C@H](CCCCN)NC(=O)[C@H](CC(=O)O)NC(=O)[C@H](CC(C)C)NC(=O)[C@H](CCC(=O)O)NC(=O)[C@@H](NC(=O)[C@H](CO)NC(=O)[C@H](Cc1ccc(O)cc1)NC(=O)[C@H](CC(=O)O)NC(=O)[C@H](CO)NC(=O)[C@@H](NC(=O)[C@H](Cc1ccccc1)NC(=O)[C@@H](NC(=O)CNC(=O)[C@H](CCC(=O)O)NC(=O)C(C)(C)NC(=O)[C@@H](N)Cc1ccc(O)cc1)[C@@H](C)O)[C@@H](C)CC)[C@@H](C)CC)C(=O)N[C@@H](CC(N)=O)C(=O)N[C@@H](Cc1c[nH]c2ccccc12)C(=O)N[C@@H](CC(C)C)C(=O)N[C@@H](CC(C)C)C(=O)N[C@@H](C)C(=O)NCC(=O)N1CCC[C@H]1C(=O)N[C@@H](CO)C(=O)N[C@@H](CO)C(=O)NCC(=O)N[C@@H](C)C(=O)N1CCC[C@H]1C(=O)N1CCC[C@H]1C(=O)N1CCC[C@H]1C(=O)N[C@@H](CO)C(N)=O` [Compound 31] (H-Y[Aib]EGTFISDYSIELDKK([AEEA-AEEA-γGlu-C20 diacid])AAQDFINWLLAGPSSGAPPPS-NH2): the values for the EC50 (on human GIP R; in assay [1]; in assay [2]) were 0.012 nM, 0.009 nM and more than 100 nM, respectively.
The corresponding values for `CC[C@H](C)[C@H](NC(=O)[C@H](Cc1ccccc1)NC(=O)[C@H](CC(=O)O)NC(=O)[C@H](CCC(N)=O)NC(=O)[C@H](C)NC(=O)[C@H](C)NC(=O)[C@H](CCCCNC(=O)COCCOCCNC(=O)COCCOCCNC(=O)CC[C@H](NC(=O)CCCCCCCCCCCCCCCCCCC(=O)O)C(=O)O)NC(=O)[C@H](CCCCN)NC(=O)[C@H](CC(=O)O)NC(=O)[C@H](CC(C)C)NC(=O)[C@H](CCC(=O)O)NC(=O)[C@@H](NC(=O)[C@H](CO)NC(=O)[C@H](Cc1ccc(O)cc1)NC(=O)[C@H](CC(=O)O)NC(=O)[C@H](CO)NC(=O)[C@@H](NC(=O)[C@H](Cc1ccccc1)NC(=O)[C@@H](NC(=O)CNC(=O)[C@H](CCC(=O)O)NC(=O)C(C)(C)NC(=O)[C@@H](N)Cc1ccc(O)cc1)[C@@H](C)O)[C@@H](C)CC)[C@@H](C)CC)C(=O)N[C@@H](CCC(=O)O)C(=O)N[C@@H](Cc1c[nH]c2ccccc12)C(=O)N[C@@H](CC(C)C)C(=O)N[C@@H](CC(C)C)C(=O)N[C@@H](C)C(=O)NCC(=O)N1CCC[C@H]1C(=O)N[C@@H](CO)C(=O)N[C@@H](CO)C(=O)NCC(=O)N[C@@H](C)C(=O)N1CCC[C@H]1C(=O)N1CCC[C@H]1C(=O)N1CCC[C@H]1C(=O)N[C@@H](CO)C(N)=O` [Compound 32] (H-Y[Aib]EGTFISDYSIELDKK([AEEA-AEEA-γGlu-C20 diacid])AAQDFIEWLLAGPSSGAPPPS-NH2) are 0.02 nM, 0.012 nM and more than 100 nM.
The like results for `CC[C@H](C)[C@H](NC(=O)[C@H](CCCCNC(=O)COCCOCCNC(=O)COCCOCCNC(=O)CC[C@H](NC(=O)CCCCCCCCCCCCCCCCCCC(=O)O)C(=O)O)NC(=O)[C@H](CC(=O)O)NC(=O)[C@H](CC(C)C)NC(=O)[C@H](CCC(=O)O)NC(=O)[C@@H](NC(=O)[C@H](CO)NC(=O)[C@H](Cc1ccc(O)cc1)NC(=O)[C@H](CC(=O)O)NC(=O)[C@H](CO)NC(=O)[C@@H](NC(=O)[C@H](Cc1ccccc1)NC(=O)[C@@H](NC(=O)CNC(=O)[C@H](CCC(=O)O)NC(=O)C(C)(C)NC(=O)[C@@H](N)Cc1ccc(O)cc1)[C@@H](C)O)[C@@H](C)CC)[C@@H](C)CC)C(=O)N[C@@H](C)C(=O)N[C@@H](CCC(N)=O)C(=O)N[C@@H](CCCNC(=N)N)C(=O)N[C@@H](C)C(=O)N[C@@H](Cc1ccccc1)C(=O)N[C@H](C(=O)N[C@@H](CCC(=O)O)C(=O)N[C@@H](Cc1c[nH]c2ccccc12)C(=O)N[C@@H](CC(C)C)C(=O)N[C@@H](CC(C)C)C(=O)N[C@@H](C)C(=O)N[C@@H](CCC(N)=O)C(=O)NCC(=O)N1CCC[C@H]1C(=O)N[C@@H](CO)C(=O)N[C@@H](CO)C(=O)NCC(=O)N[C@@H](C)C(=O)N1CCC[C@H]1C(=O)N1CCC[C@H]1C(=O)N1CCC[C@H]1C(=O)N[C@@H](CO)C(N)=O)[C@@H](C)CC` [Compound 34] (H-Y[Aib]EGTFISDYSIELDK([AEEA-AEEA-γGlu-C20 diacid])IAQRAFIEWLLAQGPSSGAPPPS-NH2) were, in that order, 0.011 nM, 0.017 nM and more than 10 nM.
The like results for `CC[C@H](C)[C@H](NC(=O)[C@H](Cc1ccccc1)NC(=O)[C@H](C)NC(=O)[C@H](CCCNC(=N)N)NC(=O)[C@H](CCC(N)=O)NC(=O)[C@H](C)NC(=O)[C@H](CCCCNC(=O)COCCOCCNC(=O)COCCOCCNC(=O)CC[C@H](NC(=O)CCCCCCCCCCCCCCCCCCC(=O)O)C(=O)O)NC(=O)[C@H](CCCCN)NC(=O)[C@H](CC(=O)O)NC(=O)[C@H](CC(C)C)NC(=O)[C@H](CCC(=O)O)NC(=O)[C@@H](NC(=O)[C@H](CO)NC(=O)[C@H](Cc1ccc(O)cc1)NC(=O)[C@H](CC(=O)O)NC(=O)[C@H](CO)NC(=O)[C@@H](NC(=O)[C@H](Cc1ccccc1)NC(=O)[C@@H](NC(=O)CNC(=O)[C@H](CCC(=O)O)NC(=O)[C@@H](C)NC(=O)[C@@H](N)Cc1ccc(O)cc1)[C@@H](C)O)[C@@H](C)CC)[C@@H](C)CC)C(=O)N[C@@H](CCC(=O)O)C(=O)N[C@@H](Cc1c[nH]c2ccccc12)C(=O)N[C@@H](CC(C)C)C(=O)N[C@@H](CC(C)C)C(=O)N[C@@H](C)C(=O)N[C@@H](CCC(N)=O)C(=O)NCC(=O)N1CCC[C@H]1C(=O)N[C@@H](CO)C(=O)N[C@@H](CO)C(=O)NCC(=O)N[C@@H](C)C(=O)N1CCC[C@H]1C(=O)N1CCC[C@H]1C(=O)N1CCC[C@H]1C(=O)N[C@@H](CO)C(N)=O` [Compound 36] (H-Y[dA]EGTFISDYSIELDKK([AEEA-AEEA-γGlu-C20 diacid])AQRAFIEWLLAQGPSSGAPPPS-NH2) were, in that order, 0.006 nM, 0.006 nM and more than 10 nM.
With `CC[C@H](C)[C@H](NC(=O)[C@H](CCCCN)NC(=O)[C@H](CC(=O)O)NC(=O)[C@H](CC(C)C)NC(=O)[C@H](CCC(=O)O)NC(=O)[C@@H](NC(=O)[C@H](CO)NC(=O)[C@H](Cc1ccc(O)cc1)NC(=O)[C@H](CC(=O)O)NC(=O)[C@H](CO)NC(=O)[C@@H](NC(=O)[C@H](Cc1ccccc1)NC(=O)[C@@H](NC(=O)CNC(=O)[C@H](CCC(=O)O)NC(=O)[C@@H](C)NC(=O)[C@@H](N)Cc1ccc(O)cc1)[C@@H](C)O)[C@@H](C)CC)[C@@H](C)CC)C(=O)N[C@@H](C)C(=O)N[C@@H](C)C(=O)N[C@@H](CCC(N)=O)C(=O)N[C@@H](CC(=O)O)C(=O)N[C@@H](Cc1ccccc1)C(=O)N[C@H](C(=O)N[C@@H](CCC(=O)O)C(=O)N[C@@H](Cc1c[nH]c2ccccc12)C(=O)N[C@@H](CC(C)C)C(=O)N[C@@H](CC(C)C)C(=O)N[C@@H](C)C(=O)NCC(=O)N1CCC[C@H]1C(=O)N[C@@H](CO)C(=O)N[C@@H](CO)C(=O)NCC(=O)N[C@@H](C)C(=O)N1CCC[C@H]1C(=O)N1CCC[C@H]1C(=O)N1CCC[C@H]1C(=O)N[C@@H](CO)C(=O)N[C@@H](CCCCNC(=O)COCCOCCNC(=O)COCCOCCNC(=O)CN1CCN(C(=O)CCCCCCCCCCCCCCCCCCC(=O)O)CC1)C(N)=O)[C@@H](C)CC` [Compound 37] (H-Y[dA]EGTFISDYSIELDKIAAQDFIEWLLAGPSSGAPPPSK([AEEA-AEEA-X1])-NH2), the results for the EC50 (at human GIP R; in assay [1]; in assay [2]) were 0.016 nM, 0.006 nM and more than 10 nM, respectively.
The corresponding values for `CC[C@H](C)[C@H](NC(=O)[C@H](Cc1ccccc1)NC(=O)[C@H](CC(=O)O)NC(=O)[C@H](CCC(N)=O)NC(=O)[C@H](C)NC(=O)[C@H](C)NC(=O)[C@H](CCCCNC(=O)COCCOCCNC(=O)COCCOCCNC(=O)CC[C@H](NC(=O)CCCCCCCCCCCCCCCCCCC(=O)O)C(=O)O)NC(=O)[C@H](CCCCN)NC(=O)[C@H](CC(=O)O)NC(=O)[C@H](CC(C)C)NC(=O)[C@H](CCC(=O)O)NC(=O)[C@@H](NC(=O)[C@H](CO)NC(=O)[C@H](Cc1ccc(O)cc1)NC(=O)[C@H](CC(=O)O)NC(=O)[C@H](CO)NC(=O)[C@@H](NC(=O)[C@H](Cc1ccccc1)NC(=O)[C@@H](NC(=O)CNC(=O)[C@H](CCC(=O)O)NC(=O)C(C)(C)NC(=O)[C@@H](N)Cc1ccc(O)cc1)[C@@H](C)O)[C@@H](C)CC)[C@@H](C)CC)C(=O)N[C@@H](CCC(=O)O)C(=O)N[C@@H](Cc1c[nH]c2ccccc12)C(=O)N[C@@H](CC(C)C)C(=O)N[C@@H](CC(C)C)C(=O)N[C@@H](C)C(=O)N[C@@H](CCC(N)=O)C(=O)NCC(=O)N1CCC[C@H]1C(=O)N[C@@H](CO)C(=O)N[C@@H](CO)C(=O)NCC(=O)N[C@@H](C)C(=O)N1CCC[C@H]1C(=O)N1CCC[C@H]1C(=O)N1CCC[C@H]1C(=O)N[C@@H](CO)C(N)=O` [Compound 38] (H-Y[Aib]EGTFISDYSIELDKK([AEEA-AEEA-γGlu-C20 diacid])AAQDFIEWLLAQGPSSGAPPPS-NH2) are 0.001 nM, 0.017 nM and more than 100 nM.
